One assay addresses T1, human PI3Kα protein (Homo sapiens, UniProt P42336).
T1 construct: purchased Carna Biosciences, Inc; host or cells: baculovirus expression system
The assay can be described thus: PI3Kα enzyme assay (ADP-Glo). The assay is classed as biochemical. The conditions noted are these: read-out: PI3Kα enzyme inhibitory activity. An outline of the steps:
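Biotinylated human PI3Kα (baculovirus-expressed, 4.5 nmol/L) pre-incubated 15 min with compound in Tris-HCl pH 7.5, MgCl2, BSA; reaction 60 min at 25° C with 50 μmol/L PIP2 and 100 μmol/L ATP final. ADP quantified by ADP-Glo luminescence; IC50 calculated.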
On the technique in general: ADP-Glo turns the ADP formed in a reaction into a luminescent signal.

Assay [1] addresses T2, GST fusion human ERK2 protein (Homo sapiens, UniProt P28482).
T2 construct: purchased Carna Biosciences, Inc; host or cells: E. coli expression system
As to the kind of experiment: ERK2 enzyme assay (2). The assay is classed as biochemical. The conditions noted are these: ERK2 enzyme assay (2); read-out: ERK2 enzyme inhibitory activity (2). An outline of the steps: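 IC50 values come from mobility-shift measurement of phosphorylated versus unphosphorylated 5-FAM peptide substrate after EDTA quench. Beforehand, compound and 1.25 nmol/L E. coli-expressed GST–human ERK2 stood 15 min at room temperature (pH 7.5), then 1 mmol/L ATP and 4.25 μmol/L substrate (final) were added for 120 min at 25 °C.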

Another assay relates to CHO-K1 cells. The assay can be described thus: CHO cell toxicity test. The assay is classed as cell-based, Chinese hamster. The conditions noted are these: Cricetulus griseus; CHO-K1 cells, 24 hours culture with compound, CellTiter-Glo; read-out: IC50 value (concentration at which the number of viable cells was suppressed to 50% or less). As to the method: In a CHO cell toxicity test, the following was used.
Cell: CHO-K1 cells (derived from Chinese hamster ovary) Test medium: F-12 MEDIUM+FCS (manufactured by Biowest) having a final concentration of 2%
Detection reagent: CELLTITER-GLO™ LUMINESCENT CELL VIABILITY ASSAY (trade name, manufactured by PROMEGA Corporation)
The CHO-K1 cells were seeded in a 96-well microplate for culture at 5,000 cells/well, and cultured in a CO2 incubator (37° C.) for 24 hours. An evaluation compound (final concentration: from 25.00 μmol/L to 0.20 μmol/L, common ratio: […]) was added thereto, followed by culturing for 24 hours, and the number of viable cells was calculated from emission intensity by CELLTITER-GLO™ (trade name, manufactured by PROMEGA Corporation). In the measurement of the emission intensity, VARIOSKAN FLASH (manufactured by Thermo Fisher Scientific Inc.) was used.
Inhibition ratio (%)=100−(A/B)×100
A: Emission intensity in the presence of a test compound
B: Emission intensity in the absence of a test compound
(In general: Cellular ATP, detected with luciferase, serves as a proxy for viable cell number.)

T2 sequence (P28482 whole entry, the tested form may be a part): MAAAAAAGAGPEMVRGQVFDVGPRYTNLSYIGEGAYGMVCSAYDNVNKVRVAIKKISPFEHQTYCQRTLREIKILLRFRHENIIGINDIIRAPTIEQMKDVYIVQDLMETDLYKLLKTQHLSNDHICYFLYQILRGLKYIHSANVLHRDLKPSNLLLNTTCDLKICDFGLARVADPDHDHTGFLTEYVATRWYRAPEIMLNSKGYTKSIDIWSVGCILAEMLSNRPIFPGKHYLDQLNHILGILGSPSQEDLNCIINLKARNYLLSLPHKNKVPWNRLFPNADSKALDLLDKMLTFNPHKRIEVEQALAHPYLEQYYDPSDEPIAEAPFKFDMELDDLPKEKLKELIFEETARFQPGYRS
T1 sequence (P42336 whole entry): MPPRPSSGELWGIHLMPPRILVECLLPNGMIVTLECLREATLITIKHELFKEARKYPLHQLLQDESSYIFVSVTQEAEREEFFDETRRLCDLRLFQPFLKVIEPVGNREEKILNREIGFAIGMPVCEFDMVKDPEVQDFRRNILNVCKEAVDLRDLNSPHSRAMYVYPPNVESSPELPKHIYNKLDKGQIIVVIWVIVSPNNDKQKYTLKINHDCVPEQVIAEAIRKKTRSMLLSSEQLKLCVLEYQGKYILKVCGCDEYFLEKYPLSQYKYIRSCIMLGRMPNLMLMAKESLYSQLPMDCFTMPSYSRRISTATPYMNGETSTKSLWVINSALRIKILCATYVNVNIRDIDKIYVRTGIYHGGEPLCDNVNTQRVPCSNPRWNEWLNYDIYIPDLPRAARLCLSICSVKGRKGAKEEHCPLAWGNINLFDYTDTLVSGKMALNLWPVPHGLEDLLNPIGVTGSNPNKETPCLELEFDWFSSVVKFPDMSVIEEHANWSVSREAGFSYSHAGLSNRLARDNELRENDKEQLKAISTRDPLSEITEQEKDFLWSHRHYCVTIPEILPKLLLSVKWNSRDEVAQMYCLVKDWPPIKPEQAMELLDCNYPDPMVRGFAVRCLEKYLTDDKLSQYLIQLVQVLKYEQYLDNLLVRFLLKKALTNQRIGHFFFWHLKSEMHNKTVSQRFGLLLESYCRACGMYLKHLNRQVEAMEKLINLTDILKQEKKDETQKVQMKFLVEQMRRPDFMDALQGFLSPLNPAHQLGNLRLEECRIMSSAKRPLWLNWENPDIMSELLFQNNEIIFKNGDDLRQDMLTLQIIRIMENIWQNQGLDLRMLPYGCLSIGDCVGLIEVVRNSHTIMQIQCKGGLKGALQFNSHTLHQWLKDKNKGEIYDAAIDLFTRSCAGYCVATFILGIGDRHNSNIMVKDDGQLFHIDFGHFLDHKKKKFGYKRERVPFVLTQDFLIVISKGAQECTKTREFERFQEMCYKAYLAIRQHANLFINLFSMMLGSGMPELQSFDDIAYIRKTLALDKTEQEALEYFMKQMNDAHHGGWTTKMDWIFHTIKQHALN
T1 sequence (P27986 whole entry partner): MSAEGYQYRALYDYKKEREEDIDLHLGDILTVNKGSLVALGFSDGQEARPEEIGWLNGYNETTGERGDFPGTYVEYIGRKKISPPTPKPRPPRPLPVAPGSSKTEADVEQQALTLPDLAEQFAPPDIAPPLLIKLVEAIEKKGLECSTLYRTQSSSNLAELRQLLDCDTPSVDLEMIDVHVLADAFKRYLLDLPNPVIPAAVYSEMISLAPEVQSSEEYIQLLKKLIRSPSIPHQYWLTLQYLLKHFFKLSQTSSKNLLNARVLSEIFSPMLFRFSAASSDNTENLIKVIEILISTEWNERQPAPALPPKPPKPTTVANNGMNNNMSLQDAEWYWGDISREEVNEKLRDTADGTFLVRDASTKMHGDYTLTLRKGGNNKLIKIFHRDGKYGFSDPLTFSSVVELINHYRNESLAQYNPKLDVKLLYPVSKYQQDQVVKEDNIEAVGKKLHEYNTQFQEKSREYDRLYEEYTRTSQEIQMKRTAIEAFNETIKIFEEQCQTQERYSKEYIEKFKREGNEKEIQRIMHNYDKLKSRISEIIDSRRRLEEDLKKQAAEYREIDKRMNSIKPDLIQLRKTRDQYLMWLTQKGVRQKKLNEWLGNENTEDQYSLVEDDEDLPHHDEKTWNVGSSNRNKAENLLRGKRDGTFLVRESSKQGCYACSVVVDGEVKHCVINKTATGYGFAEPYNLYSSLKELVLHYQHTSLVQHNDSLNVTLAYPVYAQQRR

For the compound `CC(C)c1cnnc(Nc2ccc3ncc(-c4cn(C)nc4CF)cc3n2)c1` [Example 0626, 7-(3-(Fluoromethyl)-1-methyl-1H-pyrazol-4-yl)-N-(5-isopropylpyridazin-3-yl)-1,5-naphthyridine-2-amine], the IC50 is under 1000 nM on human PI3Kα protein, under 1000 nM in assay [1] and at least 25000 nM in the assay on CHO-K1 cells.
For `CC(C)c1cnnc(Nc2ccc3ncc(-c4cnn(CCCN5CC(O)C5)c4)cc3n2)c1` [Example 0629], the IC50 was under 1000 nM at human PI3Kα protein, under 1000 nM in assay [1] and at least 25000 nM in the assay with CHO-K1 cells.
Regarding `COC1CN(CCCn2cc(-c3cnc4ccc(Nc5cc(C(C)C)cnn5)nc4c3)cn2)C1` [Example 0630], the IC50 is under 1000 nM at human PI3Kα protein, under 1000 nM in assay [1] and at least 25000 nM with CHO-K1 cells.
`Cn1cc(-c2cnc3ccc(Nc4cc(C5CCCC5)cnn4)nc3c2)c(CF)n1` [Example 0631, N-(5-cyclopentylpyridazin-3-yl)-7-(3-(fluoromethyl)-1-methyl-1H-pyrazol-4-yl)-1,5-naphthyridine-2-amine]: the IC50 is under 1000 nM on human PI3Kα protein, under 1000 nM in assay [1] and at least 25000 nM in the assay on CHO-K1 cells.
As for `CC(C)c1cnnc(Nc2ccc3ncc(-c4cn(C)nc4C(F)F)cc3n2)c1` [Example 0635], the IC50 at human PI3Kα protein is under 1000 nM; in assay [1], under 1000 nM; in the assay with CHO-K1 cells, at least 25000 nM.
With `CC(C)c1cnnc(Nc2ccc3ncc(-c4cnn(CCCN5CC6CC(C5)O6)c4)cc3n2)c1` [Example 0637, 7-(1-(3-(6-Oxa-3-azabicyclo[3.1.1]heptan-3-yl)propyl)-1H-pyrazol-4-yl)-N-(5-isopropylpyridazin-3-yl)-1,5-naphthyridine-2-amine], the IC50 at human PI3Kα protein is under 1000 nM; in assay [1] it was under 1000 nM; in the assay on CHO-K1 cells, at least 25000 nM.
For the compound `CC(C)c1cnnc(Nc2ccc3ncc(-c4cnn(CCCN5CCO[C@@H](C)C5)c4)cc3n2)c1` [Example 0644], the IC50 on human PI3Kα protein was under 1000 nM; in assay [1], under 1000 nM; in the assay with CHO-K1 cells, at least 25000 nM.
Take `CC(C)c1cnnc(Nc2ccc3ncc(-c4cnn(CCCN5CCO[C@H](C)C5)c4)cc3n2)c1` [Example 0645]: the values for the IC50 (on human PI3Kα protein; in assay [1]; with CHO-K1 cells) were under 1000 nM, under 1000 nM and at least 25000 nM, respectively.
Consider `CC(C)c1cnnc(Nc2ccc3ncc(-c4cnn(CCCN5CCOC[C@H]5C)c4)cc3n2)c1` [Example 0649], for which the IC50 on human PI3Kα protein is under 1000 nM; in assay [1], under 1000 nM; with CHO-K1 cells, at least 25000 nM.
Consider `CC(C)c1cnnc(Nc2ccc3ncc(-c4cnn(CCCN5CCOC[C@@H]5C)c4)cc3n2)c1` [Example 0650], for which the IC50 at human PI3Kα protein is under 1000 nM; in assay [1], under 1000 nM; in the assay on CHO-K1 cells it was at least 25000 nM.
With `CC(C)c1cnnc(Nc2ccc3ncc(-c4cnn(CCCN5C6CCC5COC6)c4)cc3n2)c1` [Example 0651], the IC50 at human PI3Kα protein is under 1000 nM; in assay [1] it was under 1000 nM; in the assay on CHO-K1 cells, at least 25000 nM.
As to `CC(C)c1cnnc(Nc2ccc3ncc(-c4cnn(CCCN5CC6CCC(C5)O6)c4)cc3n2)c1` [Example 0653, 7-(1-(3-(8-Oxa-3-azabicyclo[3.2.1]octan-3-yl)propyl)-1H-pyrazol-4-yl)-N-(5-isopropylpyridazin-3-yl)-1,5-naphthyridine-2-amine], the IC50 on human PI3Kα protein is under 1000 nM; in assay [1], under 1000 nM; in the assay on CHO-K1 cells, at least 25000 nM.
As for `CC(C)c1cnnc(Nc2ccc3ncc(-c4cnn(CCCN5CCOCC5(C)C)c4)cc3n2)c1` [Example 0657], the IC50 was under 1000 nM at human PI3Kα protein, under 1000 nM in assay [1] and at least 25000 nM in the assay with CHO-K1 cells.
With `COCCN(C)CCCn1cc(-c2cnc3ccc(Nc4cc(C(C)C)cnn4)nc3c2)cn1` [Example 0659], the IC50 at human PI3Kα protein was under 1000 nM; in assay [1], under 1000 nM; in the assay on CHO-K1 cells it was at least 25000 nM.
On to `CC(C)c1cnnc(Nc2ccc3ncc(-c4cnn(CCCN5CCCOCC5)c4)cc3n2)c1` [Example 0665], for which the IC50 on human PI3Kα protein is under 1000 nM; in assay [1], under 1000 nM; in the assay with CHO-K1 cells, at least 25000 nM.

Source of the values: patent publication US9783536B2, “Nitrogen-containing heterocyclic compound or salt thereof” (FUJIFILM Corporation, priority 2013, dated 2017).
